Measured values reported in PubChem BioAssay AID1963867 (Molecular Pharmacology Branch, DTP, NCI, 2024).

Tested on: KRAS-mutant PDC tumor spheroid with HUVEC/MSC, viability
Test: Anticancer human tumor 327498-153-R-J2-PDC patient-derived uterine carcinosarcoma cell line growth inhibition [KRAS2]
Details: for viability, T/C: stronger effect = lower value; active = viability on the fitted dose curve at most 10% of control; inactive = the rest
Method in brief: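 KRAS-mutant tumor cells were grown as spheroids with HUVEC endothelial cells and human MSCs as stroma. Targeted agents were tested alone and with KRAS pathway inhibitors. Doses started at or near clinical Cmax, or 10 microM, descending half-log.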

[1] = curve of first compound, second compound 0.0316 µM
[2] = curve of first compound, second compound 0.1 µM
[3] = curve of first compound, second compound 0.316 µM
[4] = curve of first compound, second compound 1 µM
[5] = curve of first compound, second compound 3.16 µM
[6] = second compound 0.0316 µM, first compound 0.0316 µM
[7] = second compound 0.0316 µM, first compound 0.1 µM
[8] = second compound 0.0316 µM, first compound 0.316 µM
[9] = second compound 0.0316 µM, first compound 1 µM
[10] = second compound 0.0316 µM, first compound 3.16 µM
[11] = second compound 0.0316 µM, first compound 10 µM
[12] = second compound 0.1 µM, first compound 0.0316 µM
[13] = second compound 0.1 µM, first compound 0.1 µM
[14] = second compound 0.1 µM, first compound 0.316 µM
[15] = second compound 0.1 µM, first compound 1 µM
[16] = second compound 0.1 µM, first compound 3.16 µM
[17] = second compound 0.1 µM, first compound 10 µM
[18] = second compound 0.316 µM, first compound 0.0316 µM
[19] = second compound 0.316 µM, first compound 0.1 µM
[20] = second compound 0.316 µM, first compound 0.316 µM
[21] = second compound 0.316 µM, first compound 1 µM
[22] = second compound 0.316 µM, first compound 3.16 µM
[23] = second compound 0.316 µM, first compound 10 µM
[24] = second compound 1 µM, first compound 0.0316 µM
[25] = second compound 1 µM, first compound 0.1 µM
[26] = second compound 1 µM, first compound 0.316 µM
[27] = second compound 1 µM, first compound 1 µM
[28] = second compound 1 µM, first compound 3.16 µM
[29] = second compound 1 µM, first compound 10 µM
[30] = second compound 3.16 µM, first compound 0.0316 µM
[31] = second compound 3.16 µM, first compound 0.1 µM
[32] = second compound 3.16 µM, first compound 0.316 µM
[33] = second compound 3.16 µM, first compound 1 µM
[34] = second compound 3.16 µM, first compound 3.16 µM
[35] = second compound 3.16 µM, first compound 10 µM
[36] = curve of first compound, second compound 10 µM
[37] = second compound 0.1 µM, first compound 0.00316 µM
[38] = second compound 0.1 µM, first compound 0.01 µM
[39] = second compound 0.316 µM, first compound 0.00316 µM
[40] = second compound 0.316 µM, first compound 0.01 µM
[41] = second compound 1 µM, first compound 0.00316 µM
[42] = second compound 1 µM, first compound 0.01 µM
[43] = second compound 3.16 µM, first compound 0.00316 µM
[44] = second compound 3.16 µM, first compound 0.01 µM
[45] = second compound 10 µM, first compound 0.00316 µM
[46] = second compound 10 µM, first compound 0.01 µM
[47] = second compound 10 µM, first compound 0.0316 µM
[48] = second compound 10 µM, first compound 0.1 µM
[49] = second compound 10 µM, first compound 0.316 µM
[50] = second compound 10 µM, first compound 1 µM
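Also: spheroids exposed to agents for seven days before reading.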
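For viability, T/C in this document: 100% = DMSO vehicle wells so lower means fewer viable cells.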

CC(C)NCC(C(=O)N1CCN(c2ncnc3c2C(C)CC3O)CC1)c1ccc(Cl)cc1 (stereo unspecified) + C=CC(=O)N1CCN(c2nc(OCC3CCCN3C)nc3c2CCN(c2cccc4cccc(C)c24)C3)CC1CC#N
66.9 nM: IC50 [1]
inactive: viability, T/C [6] 59.5% | viability, T/C [7] 44.3% | viability, T/C [8] 32.8% | viability, T/C [9] 22.8% | viability, T/C [10] 15.5% | viability, T/C [11] 9.69% | viability, T/C [12] 48.7% | viability, T/C [13] 32.4% | viability, T/C [14] 22.1% | viability, T/C [15] 15.7% | viability, T/C [16] 12.7% | viability, T/C [17] 11.4% | viability, T/C [18] 42.5% | viability, T/C [19] 29.8% | viability, T/C [20] 18.3% | viability, T/C [21] 13.5% | viability, T/C [22] 12.3% | viability, T/C [24] 34.5% | viability, T/C [25] 25.2% | viability, T/C [26] 15.1% | viability, T/C [27] 12.6%
active: viability, T/C [23] 7.28% | viability, T/C [28] 9.14% | viability, T/C [29] 6.92% | viability, T/C [30] 0.26% | viability, T/C [31] 0.41% | viability, T/C [32] 0.51% | viability, T/C [33] 0.15% | viability, T/C [34] 0.14% | viability, T/C [35] 0.21%
< 31.6 nM: IC50 [2] | IC50 [3] | IC50 [4] | IC50 [5]

CCN1CCN(Cc2ccc(Nc3ncc(F)c(-c4cc(F)c5nc(C)n(C(C)C)c5c4)n3)nc2)CC1 + COc1cc2nc(C)nc(NC(C)c3cc(N)cc(C(F)(F)F)c3)c2cc1OC1CCOC1
active: viability, T/C [50] 0.34%
< 3.16 nM: IC50 [4] | IC50 [36]
6.84 nM: IC50 [3]
10.6 nM: IC50 [2]
inactive: viability, T/C [37] 65.4% | viability, T/C [38] 52.8% | viability, T/C [12] 42.6% | viability, T/C [13] 40% | viability, T/C [14] 40% | viability, T/C [15] 49.2% | viability, T/C [39] 61% | viability, T/C [40] 48% | viability, T/C [18] 33.2% | viability, T/C [19] 35.9% | viability, T/C [20] 36.6% | viability, T/C [21] 41.2% | viability, T/C [41] 51.8% | viability, T/C [42] 37.8% | viability, T/C [24] 33% | viability, T/C [25] 30% | viability, T/C [26] 39.5% | viability, T/C [27] 42.8% | viability, T/C [43] 56.4% | viability, T/C [44] 34.5% | viability, T/C [30] 31% | viability, T/C [31] 29.9% | viability, T/C [32] 34.6% | viability, T/C [33] 31.3% | viability, T/C [45] 45.4% | viability, T/C [46] 28.9% | viability, T/C [47] 29.2% | viability, T/C [48] 26.9% | viability, T/C [49] 20.3%
4.42 nM: IC50 [5]

CC1OCC2(CCN(c3cnc(Sc4ccnc(N)c4Cl)c(N)n3)CC2)C1N (stereo unspecified) + C=CC(=O)N1CCN(c2nc(=O)n(-c3c(C)ccnc3C(C)C)c3nc(-c4c(O)cccc4F)c(F)cc23)C(C)C1
< 31.6 nM: IC50 [2] | IC50 [3] | IC50 [4] | IC50 [5] | IC50 [36]
inactive: viability, T/C [12] 44.1% | viability, T/C [13] 34.8% | viability, T/C [14] 25.5% | viability, T/C [15] 25.2% | viability, T/C [16] 21% | viability, T/C [17] 16.3% | viability, T/C [18] 41.1% | viability, T/C [19] 33.4% | viability, T/C [20] 26.4% | viability, T/C [21] 23.3% | viability, T/C [22] 19.1% | viability, T/C [23] 15.9% | viability, T/C [24] 40.6% | viability, T/C [25] 31.6% | viability, T/C [26] 31.7% | viability, T/C [27] 22.9% | viability, T/C [28] 17.8% | viability, T/C [29] 16.9% | viability, T/C [30] 41.8% | viability, T/C [31] 37.4% | viability, T/C [32] 28.7% | viability, T/C [33] 23.2% | viability, T/C [34] 22.8% | viability, T/C [35] 19.4% | viability, T/C [47] 33.3% | viability, T/C [48] 28% | viability, T/C [49] 23.1% | viability, T/C [50] 21.1% | viability, T/C (second compound 10 µM, first compound 3.16 µM) 16.1% | viability, T/C (second compound 10 µM, first compound 10 µM) 16.9%

CC(C)n1nc(-c2ccc3oc(N)nc3c2)c2c(N)ncnc21 + CC1OCC2(CCN(c3cnc(Sc4ccnc(N)c4Cl)c(N)n3)CC2)C1N
< 0.316 nM: IC50 [4] | IC50 [5] | IC50 [36]
inactive: viability, T/C (second compound 0.1 µM, first compound 0.000316 µM) 70.3% | viability, T/C (second compound 0.1 µM, first compound 0.001 µM) 72.7% | viability, T/C [37] 38.3% | viability, T/C [38] 18.5% | viability, T/C (second compound 0.316 µM, first compound 0.000316 µM) 61.8% | viability, T/C (second compound 0.316 µM, first compound 0.001 µM) 46% | viability, T/C [39] 28.2% | viability, T/C [40] 14.3% | viability, T/C (second compound 1 µM, first compound 0.000316 µM) 41.2% | viability, T/C (second compound 1 µM, first compound 0.001 µM) 32.8% | viability, T/C [41] 20% | viability, T/C [42] 10.4% | viability, T/C (second compound 3.16 µM, first compound 0.000316 µM) 31.4% | viability, T/C (second compound 3.16 µM, first compound 0.001 µM) 22.6% | viability, T/C [43] 13.8% | viability, T/C (second compound 10 µM, first compound 0.000316 µM) 22.9% | viability, T/C (second compound 10 µM, first compound 0.001 µM) 19.6% | viability, T/C [45] 11.7%
active: viability, T/C [12] 8.54% | viability, T/C [13] 5.56% | viability, T/C [18] 6.36% | viability, T/C [19] 4.27% | viability, T/C [24] 6.01% | viability, T/C [25] 3.72% | viability, T/C [44] 8.15% | viability, T/C [30] 4.67% | viability, T/C [31] 3.18% | viability, T/C [46] 7.42% | viability, T/C [47] 4.21% | viability, T/C [48] 3.29%
2.17 nM: IC50 [2]
0.756 nM: IC50 [3]

O=C(c1cc(Cc2n[nH]c(=O)c3ccccc23)ccc1F)N1CCN(C(=O)C2CC2)CC1 + C=CC(=O)N1CCN(c2nc(OCC3CCCN3C)nc3c2CCN(c2cccc4cccc(C)c24)C3)CC1CC#N
711 nM: IC50 [2]
1010 nM: IC50 [1]
490 nM: IC50 [3]
active: viability, T/C [30] 2.26% | viability, T/C [31] 2.16% | viability, T/C [32] 2.51% | viability, T/C [33] 2.55% | viability, T/C [34] 3.25% | viability, T/C [35] 0.24%
< 31.6 nM: IC50 [5]
inactive: viability, T/C [6] 64.1% | viability, T/C [7] 74.5% | viability, T/C [8] 104% | viability, T/C [9] 50.3% | viability, T/C [10] 26.2% | viability, T/C [11] 16.8% | viability, T/C [12] 61.5% | viability, T/C [13] 58.4% | viability, T/C [14] 56.4% | viability, T/C [15] 47.5% | viability, T/C [16] 25.6% | viability, T/C [17] 15.7% | viability, T/C [18] 58.8% | viability, T/C [19] 56.6% | viability, T/C [20] 51.2% | viability, T/C [21] 44.2% | viability, T/C [22] 20.2% | viability, T/C [23] 14.4% | viability, T/C [24] 47.8% | viability, T/C [25] 56.3% | viability, T/C [26] 47.1% | viability, T/C [27] 38.8% | viability, T/C [28] 19.2% | viability, T/C [29] 13.8%
195 nM: IC50 [4]

CCNC(=O)CC1N=C(c2ccc(Cl)cc2)c2cc(OC)ccc2-n2c(C)nnc21 (stereo unspecified)
inactive: viability, T/C (compound 0.0316 µM) 102% [middle of 5 runs] | viability, T/C (compound 0.1 µM) 95.9% [middle of 5 runs] | viability, T/C (compound 0.316 µM) 77.6% [middle of 5 runs] | viability, T/C (compound 1 µM) 64.8% [middle of 5 runs]

Cn1ncnc1[C@H]1c2n[nH]c(=O)c3cc(F)cc(c23)N[C@@H]1c1ccc(F)cc1
25.3 nM [middle of 5 runs]: IC50 (curve of compound)
inactive: viability, T/C (compound 0.000316 µM) 103% [middle of 5 runs] | viability, T/C (compound 0.001 µM) 99% [middle of 5 runs] | viability, T/C (compound 0.00316 µM) 94.2% [middle of 5 runs] | viability, T/C (compound 0.01 µM) 81.5% [middle of 5 runs] | viability, T/C (compound 0.0316 µM) 42.4% [middle of 5 runs] | viability, T/C (compound 0.1 µM) 22.4% [middle of 5 runs]
